According to PubChem BioAssay (NCI):
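Exposure lasted 48 hours, with cells grown in 96-well plates and compounds tested at five concentrations. GI50 marks 50% less growth. TGI denotes the concentration required for complete inhibition of growth.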

How the values were obtained:
Experiment in all cases: NCI-60 cell line screen, 48 h
MDA-MB-435 = test system: MDA-MB-435
MALME-3M melanoma = test system: MALME-3M melanoma
SK-MEL-28 melanoma = test system: SK-MEL-28 melanoma
ACHN renal = test system: ACHN renal
786-0 renal = test system: 786-0 renal
MOLT-4 leukemia = test system: MOLT-4 leukemia
OVCAR-8 ovarian = test system: OVCAR-8 ovarian
KM12 colon = test system: KM12 colon
HT29 colon = test system: HT29 colon
TK-10 renal = test system: TK-10 renal

| Structure (SMILES) | GI50 (MDA-MB-435) [µM] | TGI (MDA-MB-435) [µM] | GI50 (MALME-3M melanoma) [µM] | TGI (MALME-3M melanoma) [µM] | GI50 (SK-MEL-28 melanoma) [µM] | TGI (SK-MEL-28 melanoma) [µM] | GI50 (ACHN renal) [µM] | TGI (ACHN renal) [µM] | GI50 (786-0 renal) [µM] | TGI (786-0 renal) [µM] | GI50 (MOLT-4 leukemia) [µM] | TGI (MOLT-4 leukemia) [µM] | GI50 (OVCAR-8 ovarian) [µM] | TGI (OVCAR-8 ovarian) [µM] | GI50 (KM12 colon) [µM] | TGI (KM12 colon) [µM] | GI50 (HT29 colon) [µM] | TGI (HT29 colon) [µM] | GI50 (TK-10 renal) [µM] | TGI (TK-10 renal) [µM] |
| --- | --- | --- | --- | --- | --- | --- | --- | --- | --- | --- | --- | --- | --- | --- | --- | --- | --- | --- | --- | --- |
| Oc1ccc(-c2nnc3sc(-c4ccc(F)c(Oc5ccccc5)c4)nn23)cc1 | 68.6 | > 100 | 44.4 | 98.7 | > 100 | > 100 | 22.7 | 78.3 | 21.8 | 50.3 | 22.2 | > 100 | 28.3 | > 100 | 45.7 | > 100 | 27.4 | > 100 | 29.6 | 77 |
| Cc1nn(-c2nc3ccccc3s2)c(C)c1Oc1ccccc1O | 9.36 | 21.3 | 12.6 | 25.6 | 10.2 | 21.8 | 10.1 | 22.8 | 14.6 | 27.7 | 2.56 | 12.5 | 8.04 | 25.8 | 6.99 | 20.1 | 4.95 | 20.3 | 13.9 | 31.9 |
| C=C1C(=O)O[C@@H]2C[C@@]3(C)CCC[C@H](C)C3=C[C@H]12 |  | 17.2 |  | 15.8 |  | 20.5 |  | 21.6 |  | 12.7 |  | 4.8 |  | 19.5 |  | 24.8 |  | 16.1 |  | 9.35 |
| CC(=O)N1c2ccccc2C23CCN(C)CC4C(C)OCC(C4CC2=O)C13 (centres undefined) |  | > 100 |  | > 100 |  | > 100 |  | > 100 |  | > 100 |  | > 100 |  | > 100 |  | > 100 |  | > 100 |  | > 100 |
| C1=Cc2ccccc2Nc2ccccc21 | > 100 | > 100 | > 100 | > 100 | > 100 | > 100 | > 100 | > 100 | > 100 | > 100 | > 100 | > 100 | > 100 | > 100 | > 100 | > 100 | > 100 | > 100 | > 100 | > 100 |
| Cc1cc2c(cc1Cl)SC1=CC(=O)N(c3ccccc3)C1=NS2(=O)=O | > 100 | > 100 | 44.6 | > 100 | 16.9 | 40.9 | 26.6 | > 100 | 27.5 | 71.6 | 31.7 | > 100 | 57.1 | > 100 | 26.1 | 67.3 | 21.5 | 67.8 | 21.6 | 60.3 |
| CCOc1c(Br)cc(C2C(C(=O)OC)=CN(C)C=C2C(=O)OC)cc1OC | 37.3 | > 100 | > 100 | > 100 | > 100 | > 100 | 77.6 | > 100 | > 100 | > 100 | 38.9 | > 100 | 68.1 | > 100 | 38.6 | > 100 | 45.6 | > 100 | > 100 | > 100 |
| COc1ccc(CCN2C(=O)C=CC2=O)cc1OC |  | 34 |  | 29.8 |  | 31.4 |  | 3.17 |  | 8.15 |  | 5.49 |  | 44.1 |  | 40.8 |  | 13.7 |  | 33.2 |
| COc1ccc2nc(-c3cc(-c4cc(OC)c(OC)c(OC)c4)n[nH]3)[nH]c2c1 | 1.49 | 3.11 | 1.74 | 6.4 | 1.9 | 5.26 | 2.63 | 10.7 | 2.92 | 12.8 | 0.738 | 3.27 | 1.15 | 3.2 | 1.7 | 3.69 | 2.76 | 16.2 | 2.21 | 7.58 |
| COc1cc(NS(C)(=O)=O)ccc1Nc1c2ccc(Cl)cc2nc2c(OC)cccc12 | 0.913 | 16 | 0.211 | 4.69 | 1.96 | 18 | 0.0314 | 1.5 | 0.0526 | 0.689 |  | 2.15 | 0.186 | 5.07 | 0.268 | 1.81 | 0.142 | 1.85 | 0.137 | 1.83 |
